Data set [1] is described as follows: Inhibition of PP1 (unknown origin) incubated for 2 hrs by absorbance based assay. More on the design: species or system Homo sapiens.
The next data set relates to OATP1B1. Nature of the data set: Cytotoxicity against sodium butyrate-treated HEK293 cells transfected with OATP1B1 incubated for 48 hrs by absorbance based assay. It counts as toxicity, cell-based. The settings on record: human.
Data set [2] in a line: Selectivity index, ratio of EC50 for cytotoxicity against sodium butyrate-treated HEK293 cells transfected with OATP1B1 to IC50 for inhibition of PP1 (unknown origin). In kind it is cell-based.
Another data set deals with OATP1B3. Nature of the data set: Cytotoxicity against sodium butyrate-treated HEK293 cells transfected with OATP1B3 incubated for 48 hrs by absorbance based assay. It counts as toxicity, cell-based. The note with it: human.
Data set [3] is described as follows: Selectivity index, ratio of EC50 for cytotoxicity against sodium butyrate-treated HEK293 cells transfected with OATP1B3 to IC50 for inhibition of PP1 (unknown origin). In kind it is cell-based.
The nature of data set [4]: Selectivity index, ratio of EC50 for cytotoxicity against sodium butyrate-treated HEK293 cells transfected with OATP1B1 to EC50 for cytotoxicity against sodium butyrate-treated HEK293 cells transfected with OATP1B3. It counts as cell-based.

The text below walks through data of ChEMBL document CHEMBL6120976, “Derivatization of Microcystins Can Increase Target Inhibition while Reducing Cellular Uptake” (J Nat Prod, 2025).

As usually defined, the IC50 is the concentration at which inhibition is half-maximal. Usually EC50 stands for the midpoint of the concentration-response curve. High values mean a less potent agent, low ones a more potent agent.

Molecules are shown by their SMILES. Numbered stars: 1 amine (or outer) side, 2 acyl side, 3 side chain; on linkers, the order of the positions; unused ones are H or OH. Bridge positions count the residues as written; N and C are the ends. Square brackets hold non-standard residues; d marks the D form. Peptide text beside a SMILES is read from it. Adda = CO[C@@H](Cc1ccccc1)[C@@H](C)/C=C(C)/C=C/[C@H](N[*:1])[C@H](C)C(=O)[*:2]; dAsp(3S-Me) = C[C@H](C(=O)[*:3])[C@@H](N[*:1])C(=O)[*:2]; d(γGlu) = O=C(O)[C@@H](CCC(=O)[*:2])N[*:1]; NMeDha = C=C(NC)C(=O)O

`C=C1C(=O)N[C@H](C)C(=O)N[C@@H](CC(C)C)C(=O)N[C@@H](C(=O)O)[C@H](C)C(=O)N[C@@H](CCCNC(=N)N)C(=O)N[C@@H](/C=C/C(C)=C/[C@H](C)[C@H](Cc2ccccc2)OC)[C@H](C)C(=O)N[C@@H](C(=O)O)CCC(=O)N1C` [MICROCYSTIN-LR] (R[Adda][d(γGlu)][NMeDha][dA]L[dAsp(3S-Me)]-OH; lactam N-7) registered an IC50 in data set [1] of 5.5 nM. Moreover, the figures for the EC50 at 48 h with OATP1B1 and with OATP1B3 were 8.8 nM and 9.3 nM, respectively. Also, the figures for the Ratio in data set [2] and in data set [3] were 1.6 and 1.7, respectively. Moreover, the Ratio EC50 in data set [4] is 1.
